From PMC11362066, “Fecal elimination of fluralaner in different carnivore species after oral administration” (Frontiers in Veterinary Science, 2024)
Like-named read-outs stand apart in the source and are kept apart here.

Assays:
[1] = Fecal elimination of fluralaner after oral administration, Lion; format: in vivo, Panthera leo
Description: (§1) Based on the species present at the Paris Zoo, the animals selected to be part of the study are described in Table 1.
(§2) Each individual received 1–3 tablets of fluralaner (Bravecto®, formulations from 112.5 mg to 1,400 mg per tablet), based on the dose determined (Table 2) and the actual BW of the animal on day 0 (D0). Tablets were administered with the food. Tablets were not divided, according to the summary of product characteristics and the dose administered was adjusted as closely as possible to the theoretical dose calculated. The recommended bracket doses (25–56 mg/kg in a 20-kg dog) were used as a guideline (adjusted to the body weight of the animals) to ensure that the actual dose administered would remain in the acceptable margin. For instance, for the Iberian Wolf: using the dose range 25–56 mg/kg gave a D-reference of [500–1,120] mg, thus c = D-ref/P-ref = [0.76–1.69], i.e., D-target = [763–1,698] mg, resulting in a reference range of [21.9–48.6] mg.kg^−1. The actual doses administered were between 28 and 30 mg.kg^−1. This was checked for all species.
(§3) Feces were sampled on the floor, in priority on concrete ground in indoor facilities when animals were isolated. Fecal sampling was performed by keepers with gloves, transferred to sterile vials, then saved at −80°C until transfer to the lab.
(§4) For feces analysis, well-homogenized samples were weighed and dried at 40°C overnight to eliminate water. 200 mg of the dried sample were weighed, 80 μL of IS solution (0.5 μg/mL solution), 0.52 mL of water, 200 mg QuEChERS salts and 1 mL of acetonitrile were added in a 5 mL plastic centrifuge tube. The sample was then mixed well by vortexing for 2 min and then centrifuged at 12,000 rpm for 5 min.
(§5) The upper clear layer solutions were transferred to auto-sampler vials and placed in the auto-sampler at 10°C for LC–MS/MS analysis. All results are reported in μg.kg^−1 dry weight (dw).
(§6) All pharmacokinetic data were computed using a non-linear model and “PK solver” in Microsoft-excel®. This approach has been used by Kilp et al. ([21]) and considered satisfactory by comparison with a standard PK software such as WinNonLIn®.
(§7) Only Lion and Mountain lion data (3 individuals+negative control for each species) are presented in Figure 2 as mean ± SD of the fecal concentration of fluralaner vs. time post administration. When data were LOD < Data<LOQ, an average value of 4 has been used (for graphical and PK analysis purposes). When concentrations were < LOD, ½ LOD value was used for the same purposes.

[2] = Fecal elimination of fluralaner after oral administration, Mountain lion; format: in vivo, Puma concolor
Description: as §1, §2, §3, §4, §5, §6, §7

[3] = Fecal elimination of fluralaner after oral administration, Fossa; format: in vivo, Cryptoprocta ferox; settings: Fossa n = 1
Description: as §1, §2, §3, §4, §5, §6, §7

[4] = Fecal elimination of fluralaner after oral administration, Suricate; format: in vivo, Suricatta suricatta; settings: feces, Suricate n = 1
Description: as §1, §2, §3, §4, §5, §6, §7

[5] = Fecal elimination of fluralaner after oral administration, Iberian wolf; format: in vivo, Canis lupus; settings: Iberian wolf n = 1
Description: as §1, §2, §3, §4, §5, §6, §7

[6] = Fecal elimination of fluralaner after oral administration, European otter; format: in vivo, Lutra lutra; settings: European otter n = 1
Description: as §1, §2, §3, §4, §5, §6, §7

[7] = Fecal elimination of fluralaner after oral administration, South American coati; format: in vivo, Nasua nasua; settings: South American coati n = 1
Description: as §1, §2, §3, §4, §5, §6, §7

[8] = Oral Bravecto in zoo carnivores, all treated animals (tolerance, fecal residues); format: in vivo
Description: as §1, §2, §3

[9] = design: method as in PMID 33407820; settings: wombats, pour on, doses of 25 or 85 mg.kg^−1; cited from earlier work
[10] = design: method as in PMID 28103942; settings: 221 dogs treated; cited from earlier work
honey bees = test system: honey bees; design: method as in ref 10 = [10]; 10. CVMP ( 2017 ) CVMP assessment report for EXZOLT (EM EA/V/C/004344/0000), EMA/377159/2017, Available at: https://www.ema.europa.eu/en/documents/assessment-report/exzolt-epar-public-assessment-repor; settings: cited from earlier work
dog and cat fleas = settings: cited from earlier work
[11] = design: method as in PMID 33733534; settings: cited from earlier work
[12] = cited from earlier work
[13] = design: method as in PMID 36265636; settings: treated dogs; cited from earlier work
[14] = fecal elimination, Lion n = 3, mean ± SD, oral 16.0–24.1 mg.kg^−1
[15] = feces, Lion n = 3, mean ± SD, oral 16.0–24.1 mg.kg^−1
[16] = fecal elimination, Mountain lion n = 3, mean ± SD, oral 20.8–25.0 mg.kg^−1
[17] = feces, Mountain lion n = 3, mean ± SD, oral 20.8–25.0 mg.kg^−1
[18] = fecal elimination, oral 26.3 mg.kg^−1
[19] = fecal elimination, oral 28.6 mg.kg^−1
[20] = fecal elimination, oral 36.8 mg.kg^−1
[21] = fecal elimination, oral 52.1 mg.kg^−1

In the case of `Cc1cc(C2=NOC(c3cc(Cl)cc(Cl)c3)(C(F)(F)F)C2)ccc1C(=O)NCC(=O)NCC(F)(F)F` (stereo not drawn) [fluralaner, Fluralaner], the MRT [1, 14] is reported as 190 ± 24 h, the t1/2 [1, 14] is reported as 288 ± 24 h and the Cmax ([1]; feces, Lion n = 3, mean ± SD, Bravecto tablets oral with food, 16.0–24.1 mg.kg^−1, rough estimate) is reported as 44,880 ± 28,616 μg.kg-^1 dry weight. For the same molecule, the “AUC (D0-D112)” value [1, 15] was 232,796±95,614 d* μg.kg-^1 dry weight, the “AUC(0-infini)” value [1, 15] was 234,203±95,339 d* μg.kg-^1 dry weight and the Last detection day ([1]; feces, Lion n = 3, oral 16.0–24.1 mg.kg^−1) was 89 days. It also gave a tmax ([1]; feces, Lion n = 3, oral 16.0–24.1 mg.kg^−1, rough estimate) of 24 h, an MRT [2, 16] of 72 ± 24 h and a t1/2 [2, 16] of 140 ± 24 h. The Cmax ([2]; feces, Mountain lion n = 3, mean ± SD, Bravecto tablets oral with food, 20.8–25.0 mg.kg^−1, rough estimate) was 12,909 ± 4,954 μg.kg-^1 dry weight, the “AUC (D0-D112)” value [2, 17] was 54,158±19,755 d* μg.kg-^1 dry weight and the “AUC(0-infini)” value [2, 17] was 54,786±19,755 d* μg.kg-^1 dry weight. For the same molecule, the Last detection day ([2]; feces, Mountain lion n = 3, oral 20.8–25.0 mg.kg^−1) was 49 days, the tmax ([2]; feces, Mountain lion n = 3, oral 20.8–25.0 mg.kg^−1, rough estimate) was 24 h and the MRT [3, 18] was 24 h. For the same molecule, the t1/2 [3, 18] was 72 h, the Cmax ([3]; feces, Bravecto tablet oral with food, 26.3 mg.kg^−1, rough estimate, residues in control animal in same cage) was 370,295 μg.kg-^1 dry weight and the “AUC (D0-D112)” value ([3]; feces, oral 26.3 mg.kg^−1) was 1,373,277 d* μg.kg-^1 dry weight. For the same molecule, the “AUC(0-infini)” value ([3]; feces, oral 26.3 mg.kg^−1) was 1,373,579 d* μg.kg-^1 dry weight, the Last detection day ([3]; feces, oral 26.3 mg.kg^−1) was 35 days and the tmax ([3]; feces, oral 26.3 mg.kg^−1, rough estimate) was 24 h. The Cmax ([4]; Bravecto tablet oral with food, 125 mg.kg^−1, rough estimate, residues in control animal in same cage) was 15 μg.kg-^1 dry weight, the “AUC (D0-D112)” value ([4]; oral 125 mg.kg^−1) was 105 d* μg.kg-^1 dry weight and the Last detection day ([4]; oral 125 mg.kg^−1) was 14 days. It also gave a tmax ([4]; oral 125 mg.kg^−1, rough estimate) of 336 h, an MRT [5, 19] of 140 h and a t1/2 [5, 19] of 120 h. The Cmax ([5]; feces, Bravecto tablet oral with food, 28.6 mg.kg^−1, rough estimate) was 620 μg.kg-^1 dry weight, the “AUC (D0-D112)” value ([5]; feces, oral 28.6 mg.kg^−1) was 7,218 d* μg.kg-^1 dry weight and the “AUC(0-infini)” value ([5]; feces, oral 28.6 mg.kg^−1) was 7,260 d* μg.kg-^1 dry weight. The Last detection day ([5]; feces, oral 28.6 mg.kg^−1) was 31 days, the tmax ([5]; feces, oral 28.6 mg.kg^−1, rough estimate) was 24 h and the MRT [6, 20] was 384 h. The t1/2 [6, 20] was 48 h, the Cmax ([6]; feces, Bravecto tablet oral with food, 36.8 mg.kg^−1, rough estimate) was 2,137 μg.kg-^1 dry weight and the “AUC (D0-D112)” value ([6]; feces, oral 36.8 mg.kg^−1) was 41,301 d* μg.kg-^1 dry weight. For the same molecule, the “AUC(0-infini)” value ([6]; feces, oral 36.8 mg.kg^−1) was 41,354 d* μg.kg-^1 dry weight, the Last detection day ([6]; feces, oral 36.8 mg.kg^−1) was 42 days and the tmax ([6]; feces, oral 36.8 mg.kg^−1, rough estimate) was 170 h. For the same molecule, the MRT [7, 21] was 912 h, the t1/2 [7, 21] was 624 h and the Cmax ([7]; feces, Bravecto tablet oral with food, 52.1 mg.kg^−1, rough estimate) was 453 μg.kg-^1 dry weight. The “AUC (D0-D112)” value ([7]; feces, oral 52.1 mg.kg^−1) was 7,688 d* μg.kg-^1 dry weight, the “AUC(0-infini)” value ([7]; feces, oral 52.1 mg.kg^−1) was 8,998 d* μg.kg-^1 dry weight and the Last detection day ([7]; feces, oral 52.1 mg.kg^−1) was 82 days. The tmax ([7]; feces, oral 52.1 mg.kg^−1, rough estimate) was 24 h, the “Adverse reaction during the course of the study” value ([8]; all animals treated, oral Bravecto tablets, allometrically scaled dose) was “No adverse reaction was noted” and the “Concentrations detected in fecal samples throughout the study” value ([8]; feces, highest value) was “up to 44,000 μg/kg”. The “Duration of elimination in feces as an active substance” value ([8]; our study) was “up to 3 months”, the Safety [9] was “safe” and the Dogs displaying alopecia [10] was 4%. The Dogs displaying vomiting [10] was 6%, the Toxicity classification (honey bees) was “highly toxic” and the Efficacy period (dog and cat fleas; dogs and cats) was 12 week. The “Duration of insecticidal effect on dog and cat fleas” value (dog and cat fleas; reference not given) was 12 weeks, the Protein-bound [11] was over 99% and the “Administered dose eliminated unchanged in the feces” value [12] was 90%. For the same molecule, the “Administered dose eliminated unchanged in the feces” value ([12]; rats, dogs and chickens) was “up to 90%”, the “Eliminated via the feces as the unchanged compound” value ([12]; reference not given) was over 90% and the “Measured values in urine samples” value [13] was 1 µg/L.
